Results reported in PMC7014401.

Columns and labels:
[1] = On-DNA RCM, Grubbs III catalyst A (150 eq), MgCl2 8000 eq (Lu et al. conditions, heterogeneous, rerun here); conditions: H2O:tBuOH 3:2, 0.09 mM, 25.0 °C, 1.0 h
[2] = On-DNA RCM (terminal diene to cyclic alkene), catalyst B (Grubbs-III 2,2'-biphenyldiamine derivative, 10 eq), MgCl2 20000 eq, NH4Cl 12000 eq; conditions: H2O:EtOH:MeOAc 5:4:1, 0.02 mM, 25.0 °C, 0.5 h
[3] = On-DNA RCM, Grubbs III catalyst A (10 eq), MgCl2 20000 eq, NH4Cl 12000 eq (Alternative #1); conditions: H2O:EtOH:MeOAc 5:4:1, 0.02 mM, 25.0 °C, 0.5 h
[4] = On-DNA RCM, Grubbs III catalyst A (10 eq) + 2,2'-biphenyldiamine C (20 eq), MgCl2 20000 eq, NH4Cl 12000 eq (Alternative #2); conditions: H2O:EtOH:MeOAc 5:4:1, 0.02 mM, 25.0 °C, 0.5 h
[5] = from C=CCCC[C@](C)(NC(=O)[C@H](CCCNC(=N)N)NC(=O)[C@H](Cc1c[nH]cn1)NC(=O)[C@H](CC(C)C)NC(=O)[C@](C)(CCCC=C)NC(=O)[C@H](CCCCN)NC(=O)[C@H](CCCNC(=N)N)NC(=O)[C@H](CCCNC(=N)N)NC(=O)[C@H](CCCNC(=N)N)NC(=O)[C@H](CCCNC(=N)N)NC(C)=O)C(=O)N[C@@H](CC(C)C)C(=O)N[C@@H](CCC(N)=O)C(=O)N[C@@H](CC(=O)O)C(=O)N[C@@H](CCc1cn(CC(=O)NC)nn1)C(N)=O, 21-membered ring
[6] = from C=CCCCC(=O)NCCCC[C@H](NC(=O)CCCC=C)C(=O)NC, 17-membered ring
[7] = from C=CCCCC(=O)NCCCC[C@@H](NC(=O)COCCOCCNC(=O)CCCC=C)C(=O)NC, 26-membered ring
[8] = from C=CCCCC(=O)N(CC=C)CC(=O)NC, 8-membered ring

Compound: CNC(=O)Cn1cc(CC[C@H](NC(=O)[C@H](CC(=O)O)NC(=O)[C@H](CCC(N)=O)NC(=O)[C@H](CC(C)C)NC(=O)[C@]2(C)CCCC=CCCC[C@](C)(NC(=O)[C@H](CCCCN)NC(=O)[C@H](CCCNC(=N)N)NC(=O)[C@H](CCCNC(=N)N)NC(=O)[C@H](CCCNC(=N)N)NC(=O)[C@H](CCCNC(=N)N)NC(C)=O)C(=O)N[C@@H](CC(C)C)C(=O)N[C@@H](Cc3c[nH]cn3)C(=O)N[C@@H](CCCNC(=N)N)C(=O)N2)C(N)=O)nn1
- ring closure, conversion by HPLC (% conversion (LC/MS deconvolution)) [1, 5]: 22
- ring closure, conversion by HPLC (% conversion (LC/MS deconvolution)) [2, 5]: 52

Compound: CNC(=O)[C@@H]1CCCCNC(=O)CCCC=CCCCC(=O)N1 [5-hexenoyl-Lys(5-hexenoyl)-NH-DNA (56-bp dsDNA)]
- ring closure, conversion by HPLC (% conversion (LC/MS deconvolution)) [2, 6]: 69

Compound: CNC(=O)[C@@H]1CCCCNC(=O)CCCC=CCC(=O)N[C@H](c2cccnc2)CC(=O)N1
- ring closure, conversion by HPLC (% conversion (LC/MS deconvolution)) ([1]; from C=CCCCC(=O)NCCCC[C@H](NC(=O)C[C@H](NC(=O)CC=C)c1cccnc1)C(=O)NC, 19-membered ring): 0

Compound: CNC(=O)[C@H]1CCCCNC(=O)CCCC=CCCCC(=O)NCCOCCOCC(=O)N1
- ring closure, conversion by HPLC (% conversion (LC/MS deconvolution)) [3, 7]: 58
- ring closure, conversion by HPLC (% conversion (LC/MS deconvolution)) [1, 7]: 23
- ring closure, conversion by HPLC (% conversion (LC/MS deconvolution)) [4, 7]: 61
- ring closure, conversion by HPLC (% conversion (LC/MS deconvolution)) [2, 7]: 70

Compound: CNC(=O)CN1CC=CCCCC1=O [5-hexenoyl-(N-allyl)Gly-NH-DNA]
- ring closure, conversion by HPLC (% conversion (LC/MS deconvolution)) [3, 8]: 33
- ring closure, conversion by HPLC (% conversion (LC/MS deconvolution)) [1, 8]: 65
- ring closure, conversion by HPLC (% conversion (LC/MS deconvolution)) [4, 8]: 73
- ring closure, conversion by HPLC (% conversion (LC/MS deconvolution)) [2, 8]: 62

Compound: CNC(=O)[C@@H]1CCCCNC(=O)CCCC=CCCCC(=O)N1 [5-hexenoyl-Lys(5-hexenoyl)-NH-DNA]
- ring closure, conversion by HPLC (% conversion (LC/MS deconvolution)) [3, 6]: 72
- ring closure, conversion by HPLC (% conversion (LC/MS deconvolution)) [1, 6]: 70
- ring closure, conversion by HPLC (% conversion (LC/MS deconvolution)) [4, 6]: 75
- ring closure, conversion by HPLC (% conversion (LC/MS deconvolution)) [2, 6]: 78

Compound: CNC(=O)CCOCCOCCOCCOCCn1cc(CC[C@H](NC(=O)[C@H](CC(=O)O)NC(=O)[C@H](CCC(N)=O)NC(=O)[C@H](CC(C)C)NC(=O)[C@]2(C)CCCC=CCCC[C@](C)(NC(=O)[C@H](CCCCN)NC(=O)[C@H](CCCNC(=N)N)NC(=O)[C@H](CCCNC(=N)N)NC(=O)[C@H](CCCNC(=N)N)NC(=O)[C@H](CCCNC(=N)N)NC(C)=O)C(=O)N[C@@H](CC(C)C)C(=O)N[C@@H](Cc3c[nH]cn3)C(=O)N[C@@H](CCCNC(=N)N)C(=O)N2)C(N)=O)nn1
- ring closure, conversion by HPLC (% conversion (LC/MS deconvolution)) ([2]; from C=CCCC[C@](C)(NC(=O)[C@H](CCCNC(=N)N)NC(=O)[C@H](Cc1c[nH]cn1)NC(=O)[C@H](CC(C)C)NC(=O)[C@](C)(CCCC=C)NC(=O)[C@H](CCCCN)NC(=O)[C@H](CCCNC(=N)N)NC(=O)[C@H](CCCNC(=N)N)NC(=O)[C@H](CCCNC(=N)N)NC(=O)[C@H](CCCNC(=N)N)NC(C)=O)C(=O)N[C@@H](CC(C)C)C(=O)N[C@@H](CCC(N)=O)C(=O)N[C@@H](CC(=O)O)C(=O)N[C@@H](CCc1cn(CCOCCOCCOCCOCCC(=O)NC)nn1)C(N)=O, 21-membered ring): 65
